Experimental data from ChEMBL document CHEMBL1148631, “Synthesis of cyclopentenyl carbocyclic nucleosides as potential antiviral agents against orthopoxviruses and SARS” (J Med Chem, 2006).
pEC50, pIC50: −log10 of the molar value.

Assays:
[1] = Cytotoxicity against Vaccinia virus; type: organism-based; conditions: Orthopoxvirus vaccinia
[2] = Cytotoxicity against Cowpox virus; type: organism-based
Cowpox virus [3] = experiment: Antiviral activity against Cowpox virus; type: functional, organism-based
SARS-CoV [4] = experiment: Antiviral activity against SARS coronavirus; type: functional, organism-based; conditions: Severe acute respiratory syndrome-related coronavirus
Yellow fever virus [5] = experiment: Selective index against Yellow fever virus; type: functional
[6] = tested on: Venezuelan equine encephalitis virus; experiment: Cytotoxicity against Venezuelan equine encephalitis virus; type: organism-based
Vaccinia virus [7] = experiment: Antiviral activity against Vaccinia virus; type: functional, organism-based; conditions: Orthopoxvirus vaccinia
Vaccinia virus [8] = experiment: Selective index against Vaccinia virus; type: functional, Orthopoxvirus vaccinia
SARS-CoV [9] = experiment: Selective index against SARS coronavirus; type: functional, Severe acute respiratory syndrome-related coronavirus
[10] = tested on: Venezuelan equine encephalitis virus; experiment: Antiviral activity against Venezuelan equine encephalitis virus; type: functional, organism-based
Cowpox virus [11] = experiment: Selective index against Cowpox virus; type: functional
SARS-CoV [12] = experiment: Cytotoxicity against SARS coronavirus; type: organism-based; conditions: Severe acute respiratory syndrome-related coronavirus
West Nile virus [13] = experiment: Cytotoxicity against West Nile virus; type: organism-based
Yellow fever virus [14] = experiment: Antiviral activity against Yellow fever virus; type: functional, organism-based
[15] = tested on: Venezuelan equine encephalitis virus; experiment: Selective index against Venezuelan equine encephalitis virus; type: functional
Yellow fever virus [16] = experiment: Cytotoxicity against Yellow fever virus; type: organism-based
West Nile virus [17] = experiment: Antiviral activity against West Nile virus; type: functional, organism-based

| SMILES | pIC50 [1] | pIC50 [2] | pEC50 (Cowpox virus [3]) | pEC50 (SARS-CoV [4]) | Selectivity index (Yellow fever virus [5]) | pIC50 [6] | pEC50 (Vaccinia virus [7]) | Selectivity index (Vaccinia virus [8]) | Selectivity index (SARS-CoV [9]) | pEC50 [10] | Selectivity index (Cowpox virus [11]) | pIC50 (SARS-CoV [12]) | pIC50 (West Nile virus [13]) | pEC50 (Yellow fever virus [14]) | Selectivity index [15] | pIC50 (Yellow fever virus [16]) | pEC50 (West Nile virus [17]) |
| --- | --- | --- | --- | --- | --- | --- | --- | --- | --- | --- | --- | --- | --- | --- | --- | --- | --- |
| NC(=O)c1cn([C@@H]2C=C(CO)[C@@H](O)[C@H]2O)nn1 | < 3.52 | < 3.52 | 4.41 | 4.33 | 0 | < 4.00 | 6.40 | >750 | >2.1 | < 4.00 | >7.7 | < 4.00 | < 4.00 | < 4.00 | 0 | < 4.00 | < 4.00 |
| NC(=O)c1ncn([C@@H]2C=C(CO)[C@@H](O)[C@H]2O)n1 | < 3.52 | < 3.52 | < 3.52 | 4.68 | 0 | < 4.00 | < 3.52 | 0 | >4.8 | < 4.00 | 0 | < 4.00 | < 4.00 | < 4.00 | 0 | < 4.00 | < 4.00 |
| NC(=O)c1cn([C@@H]2C=C(CO)[C@@H](O)[C@H]2O)cn1 | < 3.52 | < 3.52 | < 3.52 | < 4.00 | 0 | < 4.00 | < 3.52 | 0 | 0 | < 4.00 | 0 | < 4.00 | < 4.00 | < 4.00 | 0 | < 4.00 | < 4.00 |
| Nc1ccn(C[C@@H](CO)OCP(=O)(O)O)c(=O)n1 [CIDOFOVIR] | > 3.50 | < 3.50 | – | – | – | – | 5.22 | – | – | – | – | – | – | – | – | – | – |
